This is an account of results in US20210221867A1, “Compounds Capable of Binding to Melanocortin 4 Receptor” (Novo Nordisk A/S, priority 2018, published 2021).

The term EC50 denotes the concentration needed to bring the measured effect to its halfway point. A word on the IC50: it is the midpoint of a concentration-inhibition curve.

Starred links: 1 amine or outer side, 2 acyl side, 3 side chain; linkers in the order of their positions; H or OH if unused. Positions of bridges follow the written chain, without caps; N, C: chain ends. Non-standard residues stand in square brackets, D forms with d. Residues, ends and D or L forms follow the SMILES beside them. dPhe(4-Cl) = N[C@H](Cc1ccc(Cl)cc1)C(=O)O; X1 = NC(N)NCCC[C@@H](N[*:1])C(=O)[*:2]; X3 = NCNCCC[C@@H](N[*:1])C(=O)[*:2]; X2 = NCNCCC[C@H](N[*:1])C(=O)[*:2]; Nle = CCCC[C@H](N)C(=O)O

For experiment [1], the target named is T1, human MC1R (Homo sapiens, UniProt Q01726).
T1 construct: expressed in transfected cells
Kind of experiment: Functional human melanocortin receptor 1 assay (cAMP, HTRF). The experiment is classed as cell-based. The note with it: cAMP induction, BHK cells expressing the human MC1 receptor, 30 min, 25° C. As to the method: (§1) In order to assess the potency of the compounds on human MC1R and human MC4R cAMP signalling was measured.
(§2) cAMP induction was measured by c-AMPdynamic2 assay, HTRF 62AM4PEC system from CisBio for the human MC1R and human MC4R according to the protocol provided by the vendor. BHK cells expressing the human MC1 or MC4 receptor were generated by stable transfection with expression vectors encoding the cDNA of either MC1R or MC4R. In details; 25 μl compound—or standard solution were added in the respective wells.
(§3) Compound was reconstituted in buffer (DMEM w/o phenol red, 10 mM Hepes, lx Glutamine, 0.1% OV-albumin1, 1 mM IBMX) and serially diluted starting at 2 μM, 10-fold seven times. Dilutions were carried out in the same aforementioned buffer to the desired working concentration ranges (2× higher than the final concentration). 25 μl cell solution was then added and allowed to incubate for 30 min while lightly shaking, at 25° C. […] The provided components for the assay were reconstituted according to the CisBio assay protocol “3.1 supplied reagents and preparation procedure” in MilliQ purification system H2O and diluted 1:20 in lysis buffer. 25 μl cAMP-d2 and 25 μl Cryptate conjugate were added to all wells. Plates were centrifuged at 1500 rpm for 30 sec and incubated for 1 h, lightly shaking, at 25° C. in a hotel stacker. The plates were read on Mithras LB 940 provided by Berthold Technologies
(§4) The data were analysed by non-linear regression analysis of binding curves, using the Windows™ program GraphPad™ Prism (GraphPad Software, USA). EC50 is a measure of the potency of a given compound and is defined herein as the half maximal effective concentration of the compound which induces a response (cAMP induction) halfway between the baseline and maximum response value after a fixed reaction time. Data listed as >, indicate that the highest concentration tested had no effect, where “no effect” is defined as the highest compound concentration with agonistic effect 5% of maximal response of the reference compound NDP-alpha-MSH. […]
A general note: In TR-FRET formats the signal depends on donor and acceptor labels being close together.

In experiment [2] the target is T2, human MC4R (Homo sapiens, UniProt P32245).
T2 construct: expressed in transfected cells
Kind of experiment: Functional human melanocortin receptor 4 assay (cAMP, HTRF). The experiment is classed as cell-based. Conditions: cAMP induction, BHK cells expressing the human MC4 receptor, 30 min, 25° C. As to the method: as §1, §2, §3, §4

Experiment [3] has as its target T2, human MC4R. Description: MC4 receptor binding assay (SPA, 125I-NDP-α-MSH). Conditions: displacement of 125I-NDP-α-MSH, membranes from BHK cells stably expressing the human MC4 receptor, read-out: MC4R binding IC50. How it is done: In Vitro ^125I-NDP-α-MSH Binding to Recombinant BHK Cells Stably Expressing the Human MC4 Receptor (SPA Binding Assay).
In order to assess the binding affinity of the selected compounds for the human MC4R, competitive binding assays were performed with radiolabelled NDP-alpha MSH (^125I-NDP-α-MSH) and membranes from BHK cells stably expressing the human MC4 receptor.
(§5) The BHK cell membranes are prepared from frozen or fresh cells that are homogenised in ice cold buffer (20 mM HEPES, 5 mM MgCl2, 1 mg/ml Bacitracin, pH 7.1 and one Complete™ Protease Inhibitor Cocktail Tablet per 25 ml (Catalogue number 05 056 489 001 from Roche-applied-science)) and centrifuged at 25000 g at 4° C. for 10 minutes. The supernatant is discarded, and the pellets are re-suspended in the buffer, and then homogenised and centrifuged two more times. The pellets are pooled, and the final pellet is re-suspended in buffer, aliquoted and subsequently stored at −80° C.
(§6) The SPA Binding assay was performed in 96-well white opaque plates. Each well contained: 0.5 mg PVT-WGA SPA beads, MC4 receptor expressing membrane diluted to give approximately 10% specific tracer binding, 50.000 dpm ^125I-NDP-α-MSH and relevant dilutions of test compound. The final volume in each well was 200 μl. Assay buffer was 25 mM HEPES, pH 7.0, containing 1.5 mM CaCl2, 1 mM MgSO4, 0.21% (w/v) ovalbumin, 1 mM 1,10-Phenanthroline and one Complete™ Protease Inhibitor Cocktail Tablet per 100 ml. Plates were incubated overnight (22-24 hours) at room temperature before counting for 2 minutes per well, using a TopCount NXT scintillation counter. Displacement of radio ligand is measured as reduction in light emission from SPA beads, and IC50 values are calculated by nonlinear regression analysis of sigmoidal dose-response curves in GraphPad Prism (GraphPad Software, La Jolla, Calif., USA).

For experiment [4], the target named is T1, human MC1R. Description: MC1 receptor binding assay (SPA, 125I-NDP-α-MSH). Conditions: displacement of 125I-NDP-α-MSH, membranes from BHK cells stably expressing the human MC1 receptor, read-out: MC1R binding IC50. As to the method:
In Vitro ^125I-NDP-α-MSH Binding to Recombinant BHK Cells Stably Expressing the Human MC1 Receptor (SPA Binding Assay).
In order to assess the binding affinity of the selected compounds for the human MC1R, competitive binding assays were performed with radiolabelled NDP-alpha MSH (^125I-NDP-α-MSH) and membranes from BHK cells stably expressing the human MC1 receptor.
as §5
as §6, with “MC1” for “MC4”
For orientation: In a radioligand displacement assay an active substance lowers the binding of a labelled ligand.

T1 sequence (Q01726 whole entry): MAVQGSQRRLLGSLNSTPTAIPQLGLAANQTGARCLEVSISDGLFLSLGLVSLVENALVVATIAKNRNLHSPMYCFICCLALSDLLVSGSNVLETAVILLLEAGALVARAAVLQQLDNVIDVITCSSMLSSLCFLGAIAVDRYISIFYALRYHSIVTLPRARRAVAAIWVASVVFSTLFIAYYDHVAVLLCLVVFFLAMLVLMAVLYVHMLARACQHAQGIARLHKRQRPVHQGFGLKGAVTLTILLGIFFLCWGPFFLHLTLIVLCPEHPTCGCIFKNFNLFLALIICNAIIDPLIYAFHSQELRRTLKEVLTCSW
T2 sequence (P32245 whole entry): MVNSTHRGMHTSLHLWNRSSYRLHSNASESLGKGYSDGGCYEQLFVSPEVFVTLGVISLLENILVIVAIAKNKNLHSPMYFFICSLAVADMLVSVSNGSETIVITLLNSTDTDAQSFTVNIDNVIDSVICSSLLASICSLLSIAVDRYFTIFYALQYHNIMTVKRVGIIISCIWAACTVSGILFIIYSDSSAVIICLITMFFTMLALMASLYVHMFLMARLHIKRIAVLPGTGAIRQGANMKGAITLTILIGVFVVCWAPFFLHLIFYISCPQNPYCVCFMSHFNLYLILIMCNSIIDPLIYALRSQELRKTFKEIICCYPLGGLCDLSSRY

Compound `CCCC[C@H](NC(=O)[C@H](CCC(=O)O)NC(=O)[C@@H](CCCNC(=N)N)NC(=O)[C@@H]1CCCN1C(=O)[C@@H]1CCCN1C(=O)[C@@H]1CSSC[C@H](NC(=O)[C@H](CCCNC(=N)N)NC(C)=O)C(=O)N2CCC[C@H]2C(=O)N[C@@H](Cc2c[nH]cn2)C(=O)N[C@H](Cc2ccccc2)C(=O)N[C@@H](Cc2c[nH]cn2)C(=O)N[C@@H](Cc2c[nH]c3ccccc23)C(=O)N1)C(=O)N[C@H](CCCNC(N)N)C(=O)N[C@H](CCCNC(=N)N)C(N)=O` [Chem. 5, Ac-Arg-c[Cys-Pro-His-D- Phe-His-Trp-Cys]-Pro- Pro-D-Arg-Glu-Nle-D- Arg-D-Arg-NH2] (Ac-RCPH[dF]HWCPP[dR]E[Nle][X1][dR]-NH2; disulfide 2-8) registered an EC50 in experiment [1] of 172 nM.
As for `CCCC[C@H](NC(=O)[C@H](CCC(=O)O)NC(=O)[C@@H](CCCNC(=N)N)NC(=O)[C@@H]1CCCN1C(=O)[C@@H]1CCCN1C(=O)[C@@H]1CSSC[C@H](NC(=O)[C@H](CCCNC(=N)N)NC(C)=O)C(=O)N2CCC[C@H]2C(=O)N[C@@H](Cc2c[nH]cn2)C(=O)N[C@H](Cc2ccccc2)C(=O)N[C@@H](Cc2c[nH]cn2)C(=O)N[C@@H](Cc2c[nH]c3ccccc23)C(=O)N1)C(=O)N[C@H](CCCNC(N)N)C(=O)N[C@H](CCCNC(=N)N)C(N)=O` [Chem. 6, Ac-D-Arg-c[Cys-Pro-His- D-Phe-His-Trp-Cys]-Pro- Pro-D-Arg-Glu-Nle-D- Arg-D-Arg-NH2] (Ac-RCPH[dF]HWCPP[dR]E[Nle][X1][dR]-NH2; disulfide 2-8), the EC50 was 0.32 nM in experiment [2] and 126 nM in experiment [1]. Further, the IC50 in experiment [3] amounted to 0.35 nM; in experiment [4], 44.1 nM.
Take `CCCC[C@H](NC(=O)[C@H](CCC(=O)O)NC(=O)[C@@H](CCCNC(=N)N)NC(=O)[C@@H]1CCCN1C(=O)[C@@H]1CCCN1C(=O)[C@@H]1CSSC[C@H](NC(C)=O)C(=O)N2CCC[C@H]2C(=O)N[C@@H](Cc2c[nH]cn2)C(=O)N[C@H](Cc2ccc(Cl)cc2)C(=O)N[C@@H](Cc2c[nH]cn2)C(=O)N[C@@H](Cc2c[nH]c3ccccc23)C(=O)N1)C(=O)N[C@H](CCCNCN)C(=O)N[C@H](CCCNC(=N)N)C(N)=O` [Chem. 10, Ac-c[Cys-Pro-His-D-Cl- Phe-His-Trp-Cys]-Pro- Pro-D-Arg-Glu-Nle-D- Arg-D-Arg-NH2] (Ac-CPH[dPhe(4-Cl)]HWCPP[dR]E[Nle][X3][dR]-NH2; disulfide 1-7): the IC50 in experiment [4] was 172 nM.
For the compound `CCCC[C@H](NC(=O)[C@H](CCC(=O)O)NC(=O)[C@@H](CCCNC(=N)N)NC(=O)[C@@H]1CCCN1C(=O)[C@@H]1CCCN1C(=O)[C@@H]1CSSC[C@H](NC(C)=O)C(=O)N2CCC[C@H]2C(=O)N[C@@H](Cc2c[nH]cn2)C(=O)N[C@H](Cc2ccccc2)C(=O)N[C@@H](Cc2c[nH]cn2)C(=O)N[C@@H](Cc2c[nH]c3ccccc23)C(=O)N1)C(=O)N[C@@H](CCCNCN)C(=O)N[C@H](CCCNC(=N)N)C(N)=O` [Chem. 15, Ac-c[Cys-Pro-His-D-Phe- His-Trp-Cys]-Pro-D- Arg-Glu-Nle-Arg-D-Arg- NH2] (Ac-CPH[dF]HWCPP[dR]E[Nle][X2][dR]-NH2; disulfide 1-7), the half-maximal inhibitory concentration (IC50) in experiment [3] is 0.88 nM.
Turning to `CCCC[C@H](NC(=O)[C@H](CCC(=O)O)NC(=O)[C@@H](CCCNC(=N)N)NC(=O)[C@@H]1CCCN1C(=O)[C@@H]1CCCN1C(=O)[C@@H]1CSSC[C@H](NC(C)=O)C(=O)N2CCC[C@H]2C(=O)N[C@@H](Cc2c[nH]cn2)C(=O)N[C@H](Cc2ccccc2)C(=O)N[C@@H](Cc2c[nH]cn2)C(=O)N[C@@H](Cc2c[nH]c3ccccc23)C(=O)N1)C(=O)N[C@H](CCCNC(=N)N)C(=O)N[C@H](CCCNC(=N)N)C(=O)N[C@H](CCCNC(=N)N)C(N)=O` [Chem. 16, Ac-c[Cys-Pro-His-D-Phe- His-Trp-Cys]-Pro-Pro-D- Arg-Glu-Nle-D-Arg-D- Arg-D-Arg-NH2] (Ac-CPH[dF]HWCPP[dR]E[Nle][dR][dR][dR]-NH2; disulfide 1-7), a half-maximal response in experiment [2] (EC50) required 0.16 nM. Further, the results for the IC50 in experiment [3] and in experiment [4] were 0.27 nM and 138 nM, respectively.
`CC(=O)N[C@H](CCCNC(=N)N)C(=O)N[C@H]1CSSC[C@@H](C(=O)N2CCC[C@H]2C(=O)N2CCC[C@H]2C(=O)N[C@H](CCCNC(=N)N)C(=O)N[C@H](CCCNC(=N)N)C(N)=O)NC(=O)[C@H](Cc2c[nH]c3ccccc23)NC(=O)[C@H](Cc2c[nH]cn2)NC(=O)[C@@H](Cc2ccccc2)NC(=O)[C@H](Cc2c[nH]cn2)NC(=O)[C@@H]2CCCN2C1=O` [Chem. 18, Ac-D-Arg-c[Cys-Pro-His- D-Phe-His-Trp-Cys]-Pro- Pro-D-Arg-D-Arg-NH2] (Ac-[dR]CPH[dF]HWCPP[dR][dR]-NH2; disulfide 2-8): the EC50 stood at 0.19 nM in experiment [2] and 179 nM in experiment [1]. Also, the IC50 worked out at 0.39 nM in experiment [3] and 69 nM in experiment [4].
